# Data: PMC8115619, “Generation of a chemical genetic model for JAK3” (Scientific Reports, 2021)
# Assays:
# [1] = tested on: IL-4 induced STAT6 phosphorylation in wild type BMDMs; assay: IL-4 induced STAT6 phosphorylation in wild type BMDMs (immunoblot); assay type: cell-based; settings: Mus musculus, BMDM, 0.5 h; 10 ng/ml IL-4 30 min, pSTAT6 Tyr641 immunoblot, two independent experiments
# Procedure: (§1) Figure 3 Effect of JAK3 inhibitors on IL-4 induced STAT6 phosphorylation. BMDMs were isolated from wild type and JAK3 Cys905Ser knockin mice. Cells were incubated with the indicated concentrations of inhibitor before stimulation for 30 min with 10 ng/ml IL-4. Cells were lysed and the levels of STAT6 phosphorylated at Tyr641 were assessed by immunoblotting. Levels of ERK1/2 were determined as a loading control.
# (§2) Bone marrow derived macrophages (BMDMs) were cultured as described. Briefly, bone marrow was flushed in PBS from the femurs and tibias of mice. Cells were cultured on bacterial grade plastic for 7 days at 37 °C, 5% CO2. Cells were then detached using Versene (Gibco), re-plated on tissue culture plastic in BMDM media (in DMEM supplemented with 10% heat inactivated FBS (Labtech), 2 mM L-glutamine, 100 U/ml penicillin G, 100 μg/ml streptomycin and 0.25 μg/ml amphotericin, 5 ng/ml M-CSF) and used within 48 h. Where indicated cells were stimulated with 10 ng/ml IL-4, 10 ng/ml GM-CSF, 10 ng/ml IL-10 or 10 ng/ml IFNβ. All cytokines were from PeproTech.
# (§3) Cells were lysed directly into SDS sample buffer and aliquots run on 10% polyacrylamide gels using standard methods. Proteins were transferred onto nitrocellulose membranes, and specific proteins were detected by immunoblotting. Antibodies against tyrosine phosphorylated STATs were from Cell Signaling Technology (phospho-STAT1 #9167, phospho-STAT3 #9131, phospho-STAT5 #4322 and phospho-STAT6 #9361). The total ERK1/2 antibody used as a loading control was also from cell Signaling Technology (#4695). HRP-conjugated secondary antibodies were obtained from Pierce. Bands were detected using Clarity ECL reagents from BioRad and imaged on a Licor Odyssey Fc system. Quantification was carried out using Licor Image Studio software. After correction for the ERK1/2 levels to account for loading differences, percentage inhibition was calculated relative to the IL-4 stimulated condition. IC50 values were calculated using the same methods as for the in vitro IC50 values.
# [2] = tested on: IL-4 induced STAT6 phosphorylation in BMDMs from JAK3 Cys905Ser knockin mice; assay: IL-4 induced STAT6 phosphorylation in JAK3 Cys905Ser knockin BMDMs (immunoblot); assay type: cell-based, mouse; settings: Mus musculus, BMDM, 0.5 h; 10 ng/ml IL-4 30 min, pSTAT6 Tyr641 immunoblot, two independent experiments
# Procedure: as §1, §2, §3
# [3] = tested on: IL-4 induced STAT6 phosphorylation in wild type BMDMs; assay: Inhibitor washout, IL-4 induced STAT6 phosphorylation, wild type BMDMs; assay type: cell-based, mouse; settings: inhibitor 2 h, 0.5 μM Ruxolitinib
# Procedure: Covalent inhibitors would be predicted to have very slow off rates and therefore inhibition should remain even if the unbound inhibitors are washed out of the cells. To test this, cells were treated with a high concentration of inhibitor for 2 h before being washed 3 times in PBS and then incubated in media without inhibitor for 0.5 to 24 h. If the inhibitor acts via a non-covalent mechanism, inhibition would not be expected to remain following washout from the cells. Ruxolitinib is a non-covalent pan-JAK inhibitor that can inhibit multiple JAK-STAT pathways in macrophages. […] To confirm this was not the case, similar experiments were done in JAK3 Cys905Ser knockin cells. […] Similar experiments were also carried out with PF-06651600. […] As the level of inhibition was lower at 2 h post washout than 30 min the experiment was repeated to look at 4 and 24 h time points for the washout step.
# Figure 4 Effect of inhibitor washout on JAK3 inhibition. BMDMs were isolated from wild type and JAK3 Cys905Ser knockin mice. […] The macrophages were then either stimulated with 10 ng/ml IL-4 for 30 min or washed 3 times in PBS and then incubated in media without inhibitor for the indicated times. The cells were then stimulated with IL-4 for 30 min and STAT6 phosphorylation determined by immunoblotting using levels of ERK1/2 as a loading control.
# as §2, §3
SMILES,IC50 [1] [nM],IC50 [2] [nM],"block of IL-4 induced STAT6 phosphorylation without washout, wild type BMDMs ([3]; no washout, 10 μM TL6-144)","inhibition of IL-4 induced STAT6 phosphorylation after inhibitor washout, wild type BMDMs ([3]; washed 3 times in PBS, IL-4 30 min to 2 h after washout, 10 μM TL6-144, 100 μM PF-06651600)"
"CN(C)C(=O)/C(C#N)=C/c1ccc(-c2nc3cnc4[nH]ccc4c3n2C2CCCCC2)o1 [FM-381, reference compound]",180,890,–,–
N#CC[C@H](C1CCCC1)n1cc(-c2ncnc3[nH]ccc23)cn1 [Ruxolitinib],–,–,completely block,completely lost
